Laboratory results taken from the NIST ThermoML archive (doi:10.1021/je0340755).
± gives the expanded uncertainty stated by the source.

What was measured:
[1] = 101.33 kPa, Liquid; for viscosity: Capillary tube (Ostwald / Ubbelohde) method
[2] = refractive index (Na D-line) (dimensionless); conditions: 298.15 K; 101.33 kPa; Liquid; Standard Abbe refractometry
[3] = 298.15 K, Linear variable-path acoustic interferometer
[4] = 308.15 K, Linear variable-path acoustic interferometer
[5] = 318.15 K, Linear variable-path acoustic interferometer
[6] = 328.15 K, Linear variable-path acoustic interferometer
[7] = 338.15 K, Linear variable-path acoustic interferometer

## CC(O)CCO (stereo not given) [1,3-butanediol]
[1]; 298.15 K
  mass density: 1000.03 ± 0.35 kg/m3
  speed of sound: 1522.1 ± 6.3 m/s
  viscosity: 97.25 ± 1.1 mPa·s
[1]; 308.15 K
  mass density: 994.22 ± 0.37 kg/m3
  speed of sound: 1492.1 ± 6.2 m/s
  viscosity: 52.5 ± 0.15 mPa·s
[1]; 318.15 K
  mass density: 988.7 ± 0.38 kg/m3
  speed of sound: 1472 ± 6.1 m/s
  viscosity: 30.49 ± 0.15 mPa·s
[1]; 328.15 K
  mass density: 979.18 ± 0.4 kg/m3
  speed of sound: 1453.9 ± 6.1 m/s
  viscosity: 18.91 ± 0.11 mPa·s
[1]; 338.15 K
  mass density: 971.91 ± 0.42 kg/m3
  speed of sound: 1436.1 ± 6 m/s
  viscosity: 12.28 ± 0.087 mPa·s
[2]
  refractive index: 1.439 ± 0.0004

## O [water]
[1]; 298.15 K
  viscosity: 0.89 ± 0.063 mPa·s
[1]; [3]
  speed of sound: 1498 ± 2.1 m/s
[1]; 308.15 K
  viscosity: 0.719 ± 0.063 mPa·s
[1]; [4]
  speed of sound: 1519 ± 2.2 m/s
[1]; 318.15 K
  viscosity: 0.596 ± 0.063 mPa·s
[1]; [5]
  speed of sound: 1535.1 ± 2.2 m/s
[1]; 328.15 K
  viscosity: 0.503 ± 0.063 mPa·s
[1]; [6]
  speed of sound: 1545 ± 2.2 m/s
[1]; 338.15 K
  viscosity: 0.438 ± 0.063 mPa·s
[1]; [7]
  speed of sound: 1551 ± 2.2 m/s
[2]
  refractive index: 1.3323 ± 0.0004

## OCCCCO [1,4-butanediol]
[1]; 298.15 K
  mass density: 1012.57 ± 0.45 kg/m3
  speed of sound: 1605.1 ± 6.5 m/s
  viscosity: 72.62 ± 0.5 mPa·s
[1]; 308.15 K
  mass density: 1006.4 ± 0.43 kg/m3
  speed of sound: 1588 ± 6.5 m/s
  viscosity: 44.87 ± 0.21 mPa·s
[1]; 318.15 K
  mass density: 1000.76 ± 0.41 kg/m3
  speed of sound: 1570.8 ± 6.4 m/s
  viscosity: 29.07 ± 0.15 mPa·s
[1]; 328.15 K
  speed of sound: 1552.1 ± 6.4 m/s
  viscosity: 19.48 ± 0.11 mPa·s
[1]; 338.15 K
  mass density: 987.93 ± 0.45 kg/m3
  speed of sound: 1529 ± 6.3 m/s
  viscosity: 13.49 ± 0.09 mPa·s
[2]
  refractive index: 1.4442 ± 0.0004

## CC(O)C(C)O (stereo not given) [2,3-butanediol]
[1]; 298.15 K
  mass density: 998.57 ± 2 kg/m3
  speed of sound: 1470.2 ± 7.9 m/s
  viscosity: 44.68 ± 0.21 mPa·s
[1]; 308.15 K
  mass density: 992.11 ± 2 kg/m3
  speed of sound: 1440 ± 7.8 m/s
  viscosity: 22.95 ± 0.12 mPa·s
[1]; 318.15 K
  mass density: 984.13 ± 2 kg/m3
  speed of sound: 1412.2 ± 7.7 m/s
  viscosity: 12.8 ± 0.088 mPa·s
[1]; 328.15 K
  mass density: 970.58 ± 2 kg/m3
  speed of sound: 1392 ± 7.6 m/s
  viscosity: 7.722 ± 0.074 mPa·s
[1]; 338.15 K
  mass density: 961.97 ± 2 kg/m3
  speed of sound: 1373.9 ± 7.5 m/s
  viscosity: 5.195 ± 0.069 mPa·s
[2]
  refractive index: 1.4366 ± 0.0004

## CC(O)CO (stereo not given) [1,2-propanediol]
[1]; 298.15 K
  mass density: 1032.77 ± 0.44 kg/m3
  viscosity: 43.43 ± 0.21 mPa·s
[1]; [3]
  speed of sound: 1500.1 ± 2.2 m/s
[1]; 308.15 K
  mass density: 1025.4 ± 0.42 kg/m3
  viscosity: 24.25 ± 0.13 mPa·s
[1]; [4]
  speed of sound: 1488.9 ± 2.2 m/s
[1]; 318.15 K
  mass density: 1017.32 ± 0.4 kg/m3
[1]; [5]
  speed of sound: 1438.1 ± 2.2 m/s
[1]; 328.15 K
  mass density: 1009.56 ± 0.38 kg/m3
  viscosity: 9.691 ± 0.079 mPa·s
[1]; [6]
  speed of sound: 1401 ± 2.2 m/s
[1]; 338.15 K
  mass density: 1001.81 ± 0.36 kg/m3
  viscosity: 7.044 ± 0.073 mPa·s
[1]; [7]
  speed of sound: 1382.8 ± 2.1 m/s
[2]
  refractive index: 1.4314 ± 0.0004

## OCCCO [propan-1,3-diol]
[1]; 298.15 K
  mass density: 1049.99 ± 0.49 kg/m3
  viscosity: 40.07 ± 0.19 mPa·s
[1]; [3]
  speed of sound: 1636.1 ± 2.3 m/s
[1]; 308.15 K
  mass density: 1043.71 ± 0.47 kg/m3
  viscosity: 27.25 ± 0.14 mPa·s
[1]; [4]
  speed of sound: 1616 ± 2.3 m/s
[1]; 318.15 K
  mass density: 1037.37 ± 0.45 kg/m3
  viscosity: 17.01 ± 0.1 mPa·s
[1]; [5]
  speed of sound: 1599.2 ± 2.2 m/s
[1]; 328.15 K
  mass density: 1030.96 ± 0.43 kg/m3
  viscosity: 11.28 ± 0.084 mPa·s
[1]; [6]
  speed of sound: 1575.9 ± 2.2 m/s
[1]; 338.15 K
  mass density: 1024.47 ± 0.42 kg/m3
  viscosity: 7.939 ± 0.075 mPa·s
[1]; [7]
  speed of sound: 1557 ± 2.2 m/s
[2]
  refractive index: 1.4386 ± 0.0004

## CCC(O)CO (stereo not given) [1,2-butanediol]
[1]; 298.15 K
  mass density: 998.86 ± 0.36 kg/m3
  viscosity: 57.46 ± 0.2 mPa·s
[1]; [3]
  speed of sound: 1452 ± 2.2 m/s
[1]; 308.15 K
  mass density: 991.42 ± 0.37 kg/m3
  viscosity: 30.18 ± 0.15 mPa·s
[1]; [4]
  speed of sound: 1423.8 ± 2.2 m/s
[1]; 318.15 K
  mass density: 983.93 ± 0.39 kg/m3
  viscosity: 17.41 ± 0.1 mPa·s
[1]; [5]
  speed of sound: 1396.2 ± 2.2 m/s
[1]; 328.15 K
  mass density: 976.09 ± 0.41 kg/m3
  viscosity: 10.9 ± 0.083 mPa·s
[1]; [6]
  speed of sound: 1387 ± 2.1 m/s
[1]; 338.15 K
  mass density: 968.11 ± 0.43 kg/m3
  viscosity: 7.257 ± 0.073 mPa·s
[1]; [7]
  speed of sound: 1366 ± 2.1 m/s
[2]
  refractive index: 1.4374 ± 0.0004
